# According to US20100324073A1, “Pyrazolo [1,5-A] Pyrimidine Compounds” (Wyeth LLC, priority 2007, published 2010):
# Tests used:
# ABCA1 gene = experiment: Quantitative analysis of ABCA1 gene regulation in THP-1 cells; type: cell-based; settings: Gene regulation by LXR (human), differentiated THP-1 cells; for EC50: 18 hrs, ABCA1 mRNA by real-time PCR; for Agonism ABCA1: LXR agonist reference at 1.0 uM as positive control
# Experimental: III. Quantitative Analysis of ABCA1 Gene Regulation in THP-1 Cells.
# The compounds of formula (I) effect on the regulation of the ABCA1 gene was evaluated using the following procedure.
# Cell culture: The THP-1 monocytic cell line (ATCC # TIB-202) was obtained from American Type Culture Collection (Manassas, Va.) and cultured in RPMI 1640 medium (Gibco, Carlsbad, Calif.) containing 10% FBS, 2 mM L-glutamine, and 55 uM beta-Mercaptoethanol (BME). Cells were plated in 96-well format at a density of 7.5×10^4 in complete medium containing 50-100 ng/ml phorbal 12,13-dibutyrate (Sigma, St. Louis, Mo.) for three days to induce differentiation into adherent macrophages. Differentiated THP-1 cells were treated with test compounds or ligands dissolved in DMSO (Sigma, D-8779) in culture medium lacking phorbal ester. […] Dose response effects were measured in duplicate, in the range of 0.001 to 30 micromolar concentrations and treated cells were incubated for an additional 18 hrs prior to RNA isolation. Unstimulated cells treated with vehicle were included as negative controls on each plate. An LXR agonist reference, N-(2,2,2-trifluoro-ethyl)-N-[4-(2,2,2-trifluoro-1-hydroxy-1-trifluoromethyl-ethyl)-phenyl]-benzenesulfonamide (Schultz, Joshua R., Genes & Development (2000), 14(22), 2831-2838), was dosed at 1.0 uM and served as a positive control. In antagonist mode, the compound under study is analyzed in the presence of 150 nM GW3965, trifluoromethyl-benzyl)-(2,2-diphenyl-ethyl)-amino]-propoxy]-phenyl)-acetic acid (Collins, J. L., J. Med. Chem. (2000), 45:1963-1966.). Results of antagonist analysis are expressed as % antagonism and IC50 (in μM). RNA isolation and quantitation: Total cellular RNA was isolated from treated cells cultured in 96-well plates using PrepStation 6100 (Applied Biosystems, Foster City, Calif.), according to the manufacturer's recommendations. RNA was resuspended in ribonuclease-free water and stored at −70° C. prior to analysis. RNA concentrations were quantitated with RiboGreen test procedure, #R-11490 (Molecular Probes, Eugene, Oreg.). Gene expression analysis: Gene-specific mRNA quantitation was performed by real-time PCR with the Perkin Elmer Corp. chemistry on an ABI Prism 7700 Sequence detection system (Applied Biosystems, Foster City, Calif.) according to the manufacturer's instructions. Samples (50-100 ng) of total RNA were assayed in duplicate or triplicate in 50 ul reactions using one-step RT-PCR and the standard curve method to estimate specific mRNA concentrations. Sequences of gene-specific primer and probe sets were designed with Primer Express Software (Applied Biosystems, Foster City, Calif.). The human ABCA1 primer and probe sequences are: forward, […], reverse, […], and probe, 6FAM-[…]-TAMRA. RT and PCR reactions were performed according to PE Applied Biosystem's protocol for Taqman Gold RT-PCR or Qiagen's protocl for Quantitect probe RT-PCR. Relative levels of ABCA1 mRNA are normalized using GAPDH mRNA or 18S rRNA probe/primer sets purchased commercially (Applied Biosystems, Foster City, Calif.).
# Mean, standard deviation and statistical significance of duplicate evaluations of RNA samples were assessed using ANOVA, one-way analysis of variance using SAS analysis.
# human LXRβ = target: T1, human LXRβ (Homo sapiens, UniProt P55055); experiment: Ligand-binding test procedure for human LXRβ; settings: competition with 3H T0901317, biotinylated hLXRβ; read-out: hLXRb binding IC50
# T1 construct: made in house; host or cells: E. coli
# T1 sequence (P55055 1-460): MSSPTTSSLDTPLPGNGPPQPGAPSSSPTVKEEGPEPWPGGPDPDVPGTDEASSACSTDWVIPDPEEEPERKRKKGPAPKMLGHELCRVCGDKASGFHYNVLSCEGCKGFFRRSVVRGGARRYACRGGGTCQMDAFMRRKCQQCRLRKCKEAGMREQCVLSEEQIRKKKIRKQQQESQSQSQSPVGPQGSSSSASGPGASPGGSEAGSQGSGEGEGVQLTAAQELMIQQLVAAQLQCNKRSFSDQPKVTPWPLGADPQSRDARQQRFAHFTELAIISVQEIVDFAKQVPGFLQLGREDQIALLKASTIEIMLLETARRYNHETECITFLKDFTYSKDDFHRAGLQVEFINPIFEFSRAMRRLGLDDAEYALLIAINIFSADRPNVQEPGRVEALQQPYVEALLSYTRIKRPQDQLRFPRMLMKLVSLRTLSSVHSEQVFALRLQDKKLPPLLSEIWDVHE
# Experimental: I. Ligand-Binding Test Procedure for Human LXRβ.
# (§1) Buffer: 100 mM KCl, 100 mM TRIS (pH 7.4 at +4° C.), 8.6% glycerol, 0.1 mM PMSF*, 2 mM MTG*, 0.2% CHAPS (* not used in wash buffer)
# Receptor source: E. coli extract from cells expressing biotinylated hLXRβ. Extract was made in a similar buffer as above, but with 50 mM TRIS.
# (§2) Washed streptavidin and coated flash plates with wash buffer. Diluted receptor extract to give Bmax˜4000 cpm and add to the wells. Wrapped the plates in aluminum foil and stored them at +4° C. over night.
# (§3) Made a dilution series in DMSO of the test ligands. Made a 5 nM solution of the radioactive tracer in buffer. Mixed 250 μl diluted tracer with 5 μl of the test ligand from each concentration of the dilution series. Washed the receptor-coated flash plates. Added 200 μl per well of the ligand/radiolabel mixture to the receptor-coated flash plates. Wrapped the plates in aluminum foil and incubate at +4° C. over night.
# (§4) Aspirated wells, and wash the flashed plates. Sealed the plate. Measured the remaining radioactivity in the plate.
# human LXRα = target: T2, human LXRα (Homo sapiens, UniProt Q13133); experiment: Ligand-binding test procedure for human LXRα; settings: competition with 3H T0901317, biotinylated hLXRα; read-out: hLXRa binding IC50
# T2 construct: made in house; host or cells: E. coli
# T2 sequence (Q13133 1-447): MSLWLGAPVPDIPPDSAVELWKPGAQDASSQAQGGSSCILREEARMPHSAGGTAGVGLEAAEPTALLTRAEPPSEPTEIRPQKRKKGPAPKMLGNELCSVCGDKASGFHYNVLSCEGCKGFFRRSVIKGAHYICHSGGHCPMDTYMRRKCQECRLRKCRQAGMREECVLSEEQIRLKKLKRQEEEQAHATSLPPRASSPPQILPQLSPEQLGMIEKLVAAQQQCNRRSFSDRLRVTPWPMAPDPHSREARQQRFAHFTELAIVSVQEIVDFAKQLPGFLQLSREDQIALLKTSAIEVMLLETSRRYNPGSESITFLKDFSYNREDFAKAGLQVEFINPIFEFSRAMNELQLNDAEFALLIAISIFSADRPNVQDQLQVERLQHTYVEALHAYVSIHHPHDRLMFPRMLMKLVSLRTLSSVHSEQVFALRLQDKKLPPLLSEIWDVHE
# Experimental: II. Ligand-Binding Test Procedure for Human LXRα.
# as §1
# Receptor source: E. coli extract from cells expressing biotinylated hLXRα. Extract was made in a similar buffer as above, but with 50 mM TRIS.
# as §2
# as §3, with “[…]” for “250 μl”
# as §4
SMILES,EC50 (ABCA1 gene) [nM],Agonism ABCA1 (ABCA1 gene) [%],IC50 (human LXRβ) [nM],IC50 (human LXRα) [nM]
"O=S(=O)(CCCO)c1cccc(Oc2cccc(-c3c(Cc4ccccc4)nn4c(C(F)(F)F)ccnc34)c2)c1 [Example 7, 3-(3-(3-(2-benzyl-7-(trifluoromethyl)pyrazolo[1,5-a]pyrimidin-3-yl)phenoxy)phenylsulfonyl)propan-1-ol]",724,109,3.4,87.2
"CCS(=O)(=O)c1cccc(Oc2cccc(-c3c(Cc4ccccc4)nn4c(C(F)(F)F)ccnc34)c2)c1 [Example 6, 2-benzyl-3-(3-(3-(ethylsulfonyl)phenoxy)phenyl)-7-(trifluoromethyl)pyrazolo[1,5-a]pyrimidine]",275,101,5.3,98.2
"CS(=O)(=O)c1cccc(Oc2cccc(-c3c(Cc4ccccc4)nn4c(C(F)(F)F)ccnc34)c2)c1 [Example 5, 2-benzyl-3-{3-[3-(methylsulfonyl)phenoxy]phenyl}-7-(trifluoromethyl)pyrazolo[1,5-a]pyrimidine]",115,98,2.4,61.6
